Experimental findings from patent publication US7560458B2, “Triazolopyrimidine derivatives as glycogen synthase kinase 3 inhibitors” (Janssen Pharmaceutica, N.V., priority 2003, dated 2009) are described below.

The term melting point denotes the temperature, or range, at which the solid turns liquid.

Where a name gives a salt, the structure may show the parent alone.

One data set concerns the target GSK3β (Homo sapiens, UniProt P49841). Description: GSK3beta assay (SPA, biotinylated phosphorylated CREB peptide, ATP-P33). In kind it is biochemical. The following applies: −log IC50 (M); given as ranges (>8; 7-8; <7); read-out: pIC50 (GSK3beta) (converted). In a few lines:
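Radiometric SPA at room temperature, pH 7.4 Tris/MgCl2/DTT/BSA/glycerol, with 5.7 ng/μl GSK3β, 5 μM biotinylated phospho-CREB peptide, 1 μM ATP plus 33P-ATP for 1 h. Stopped with streptavidin SPA beads, counted after overnight settling; % inhibition versus no-compound control, IC50 from dose-response curve.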

For the next data set, the target named is GSK3alpha (Homo sapiens, UniProt P49840). Nature of the data set: GSK3alpha assay (same as the GSK3beta assay, GSK3alpha 0.25 ng/μl). In kind it is biochemical. The note with it: −log IC50 (M); given as ranges (>8; 7-8; <7); read-out: pIC50 (GSK3alpha) (converted). The essentials:
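GSK3α at 0.25 ng/μl phosphorylated 5 μM biotinylated phospho-CREB peptide with 1 μM ATP and 33P-ATP for 1 h at room temperature, in 25 mM Tris pH 7.4 with 10 mM MgCl2 and 1 mM DTT. Phosphorylated peptide was captured on streptavidin SPA beads and counted. IC50 was taken from dose-response curves.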

Chain of GSK3β (P49841 whole entry, species assumed): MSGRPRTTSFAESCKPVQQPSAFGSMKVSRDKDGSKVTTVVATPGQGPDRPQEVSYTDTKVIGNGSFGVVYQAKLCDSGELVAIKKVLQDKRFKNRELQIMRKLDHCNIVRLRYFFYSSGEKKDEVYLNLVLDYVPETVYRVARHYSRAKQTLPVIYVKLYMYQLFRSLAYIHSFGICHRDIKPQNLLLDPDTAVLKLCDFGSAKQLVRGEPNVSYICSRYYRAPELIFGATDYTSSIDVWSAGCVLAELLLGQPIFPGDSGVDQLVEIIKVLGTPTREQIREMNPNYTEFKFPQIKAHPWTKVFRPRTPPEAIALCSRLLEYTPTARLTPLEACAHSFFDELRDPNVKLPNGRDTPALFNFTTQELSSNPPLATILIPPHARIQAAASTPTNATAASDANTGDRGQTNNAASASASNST
Chain of GSK3alpha (P49840 whole entry, species assumed): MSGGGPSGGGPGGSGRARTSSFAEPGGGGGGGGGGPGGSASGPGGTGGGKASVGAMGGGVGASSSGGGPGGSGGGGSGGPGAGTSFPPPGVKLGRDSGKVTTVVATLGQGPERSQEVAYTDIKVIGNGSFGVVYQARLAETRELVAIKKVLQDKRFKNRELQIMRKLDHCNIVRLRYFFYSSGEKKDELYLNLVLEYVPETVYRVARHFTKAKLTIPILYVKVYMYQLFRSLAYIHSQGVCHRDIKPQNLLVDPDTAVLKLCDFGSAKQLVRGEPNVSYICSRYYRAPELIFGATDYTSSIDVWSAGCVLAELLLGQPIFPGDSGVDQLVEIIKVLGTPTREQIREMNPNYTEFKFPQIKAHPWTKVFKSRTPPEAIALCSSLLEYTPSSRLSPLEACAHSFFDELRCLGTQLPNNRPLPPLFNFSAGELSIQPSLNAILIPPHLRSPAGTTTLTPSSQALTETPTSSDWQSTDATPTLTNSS

On to `Nc1cccc(Nc2ncc3nnn(-c4cccc(F)c4)c3n2)c1` (as salt: HCl) [Compound 12], for which the melting point turned out to be 224 °C.
With `NS(=O)(=O)c1cccc(Nc2ncc3nnn(-c4cccc(F)c4)c3n2)c1` [Compound 1], the melting point was 177 °C. The IC50 on GSK3β is under 1e-08 M. Besides, at GSK3alpha, the IC50 is under 1e-08 M.
For the compound `CC(=O)c1cccc(Nc2ncc3nnn(-c4cccc(F)c4)c3n2)c1` [Compound 2], the melting point fell in the range of 220 to 224 °C. Further, the IC50 on GSK3β was under 1e-08 M. Also, the IC50 at GSK3alpha was under 1e-08 M.
On to `N#Cc1ccc(Nc2ncc3nnn(-c4cccc(F)c4)c3n2)cc1Cl` [Compound 3], for which the melting point is over 260 °C. Further, the IC50 on GSK3β was under 1e-08 M. Further, the IC50 on GSK3alpha was under 1e-08 M.
Turning to `COc1cc(OC)cc(-n2nnc3cnc(Nc4cccc(C#N)c4)nc32)c1` [Compound 6], the melting point is 228 to 232 °C. The IC50 at GSK3β was under 1e-08 M. Besides, at GSK3alpha, the IC50 is under 1e-08 M.
`Fc1cccc(-n2nnc3cnc(Nc4cccc(Br)c4)nc32)c1` [Compound 7]: the melting point is 212 to 213 °C. The IC50 at GSK3β was under 1e-08 M. Also, the IC50 on GSK3alpha was under 1e-08 M.
In the case of `N#Cc1cccc(Nc2ncc3nnn(-c4cccc(F)c4)c3n2)c1` [Compound 8], the melting point was in the range of 228 to 230 °C. Besides, the IC50 at GSK3β was under 1e-08 M. Further, the IC50 on GSK3alpha was under 1e-08 M.
In the case of `CCOC(=O)/C=C/c1cccc(Nc2ncc3nnn(-c4cccc(F)c4)c3n2)c1` [Compound 9], the melting point lay in the range of 214 to 218.1 °C. In addition, the IC50 at GSK3β is under 1e-08 M. Moreover, on GSK3alpha, the IC50 is under 1e-08 M.
Compound `O=C(O)/C=C/c1cccc(Nc2ncc3nnn(-c4cccc(F)c4)c3n2)c1` [Compound 10] came in with a melting point of over 250 °C. In addition, the IC50 on GSK3β was under 1e-08 M. Also, the IC50 at GSK3alpha was under 1e-08 M.
Consider `CC(O)c1cccc(Nc2ncc3nnn(-c4cccc(F)c4)c3n2)c1` (stereo not drawn) [Compound 27], for which the melting point was in the range of 150 to 154 °C. In addition, the IC50 at GSK3β was under 1e-08 M. Besides, at GSK3alpha, the IC50 is under 1e-08 M.
Compound `CC(C)Oc1cccc(Nc2ncc3nnn(-c4cccc(F)c4)c3n2)c1` [Compound 28] showed a melting point of 142 to 146 °C. The IC50 at GSK3β was under 1e-08 M. For the same compound, the IC50 on GSK3alpha was under 1e-08 M.
As for `COc1cccc(-n2nnc3cnc(Nc4cccc(C#N)c4)nc32)c1` [Compound 55], the melting point was 228 to 231 °C. The IC50 at GSK3β was under 1e-08 M. Further, the IC50 at GSK3alpha is under 1e-08 M.
With `NS(=O)(=O)c1cccc(Nc2ncc3nnn(-c4cccc(-c5cnco5)c4)c3n2)c1` [Compound 57], the melting point was over 250 °C. Further, the IC50 at GSK3β was under 1e-08 M. Besides, the IC50 on GSK3alpha was under 1e-08 M.
`C=CCN(c1cccc(Nc2ncc3nnn(-c4cccc(CO)c4)c3n2)c1)S(C)(=O)=O` [Compound 69] returned a melting point of 158 to 162 °C. For the same compound, the IC50 at GSK3β is under 1e-08 M. The IC50 on GSK3alpha is 1e-08 M.
`CC(=O)NCc1cccc(Nc2ncc3nnn(-c4cccc(C(=O)O)c4)c3n2)c1` [Compound 76] showed a melting point of over 260 °C.
The compound `COCc1cccc(-n2nnc3cnc(Nc4cccc([S+](C)[O-])c4)nc32)c1` (stereo not drawn) [Compound 148] had a melting point of 142 to 146 °C. Besides, the IC50 on GSK3β was under 1e-08 M. Also, on GSK3alpha, the IC50 was under 1e-08 M.
Turning to `C[S+]([O-])c1cccc(Nc2ncc3nnn(-c4cccc(F)c4)c3n2)c1` (stereo not drawn) [Compound 152], the melting point was 168 to 172 °C. On GSK3β, the IC50 was under 1e-08 M. Further, the IC50 at GSK3alpha was under 1e-08 M.
Take `COCCOCc1cccc(-n2nnc3cnc(Nc4ccc(F)cc4)nc32)c1` [Compound 287]: the melting point is 148 °C. For the same compound, the IC50 on GSK3β was under 1e-08 M. Further, the IC50 on GSK3alpha is under 1e-08 M.
`CN(C)CCCOc1ccc(Nc2ncc3nnn(-c4cccc(F)c4)c3n2)cc1` [Compound 297] yielded a melting point of 137 °C. Also, the IC50 at GSK3β is 1e-08 to 1e-07 M. Also, on GSK3alpha, the IC50 was 1e-08 to 1e-07 M.
Turning to `COc1cc(Nc2ncc3nnn(-c4cccc(F)c4)c3n2)ccc1C(=O)O` [Compound 298], the melting point came to 232 °C. Moreover, at GSK3β, the IC50 is under 1e-08 M. Besides, the IC50 on GSK3alpha was under 1e-08 M.
Turning to `NCc1ccc(Nc2ncc3nnn(-c4cccc(CCO)c4)c3n2)cc1` [Compound 310], the IC50 at GSK3β and at GSK3alpha was under 1e-08 M in each case.
Turning to `N#CCc1cccc(-n2nnc3cnc(Nc4ccc(CNCC(F)(F)F)cc4)nc32)c1` [Compound 311], the IC50 on GSK3β and on GSK3alpha was under 1e-08 M throughout.
For `COCCOc1cccc(-n2nnc3cnc(Nc4ccc(CNCC(F)(F)F)cc4)nc32)c1` [Compound 312], the IC50 is 1e-08 to 1e-07 M at GSK3β and under 1e-08 M on GSK3alpha.
Consider `N#CCc1cccc(-n2nnc3cnc(Nc4ccc(CN)cc4)nc32)c1` [Compound 313], for which the IC50 at GSK3β and at GSK3alpha was under 1e-08 M each time.
As to `COCCOCc1cccc(-n2nnc3cnc(Nc4ccc(CN)cc4)nc32)c1` [Compound 314], the IC50 on GSK3β and on GSK3alpha was 1e-08 to 1e-07 M in each case.
Take `COCc1cccc(-n2nnc3cnc(Nc4ccc(CN)cc4)nc32)c1` [Compound 315]: the IC50 on GSK3β and at GSK3alpha was under 1e-08 M in each case.
For the compound `NCCc1ccc(Nc2ncc3nnn(-c4cccc(CCO)c4)c3n2)cc1` [Compound 316], the IC50 at GSK3β and at GSK3alpha was under 1e-08 M each time.
Consider `N#CCc1cccc(-n2nnc3cnc(Nc4ccc(CCN)cc4)nc32)c1` [Compound 317], for which the IC50 at GSK3β and on GSK3alpha was under 1e-08 M in each case.
Turning to `COCCOCc1cccc(-n2nnc3cnc(Nc4ccc(CCN)cc4)nc32)c1` [Compound 318], the IC50 on GSK3β and on GSK3alpha was 1e-08 to 1e-07 M each time.
Take `COCCOc1cccc(-n2nnc3cnc(Nc4ccc(CCN)cc4)nc32)c1` [Compound 319]: the IC50 on GSK3β and at GSK3alpha was 1e-08 to 1e-07 M in each case.
As to `COCc1cccc(-n2nnc3cnc(Nc4ccc(CCN)cc4)nc32)c1` [Compound 320], the IC50 at GSK3β and at GSK3alpha was 1e-08 to 1e-07 M in each case.
Turning to `NCCc1ccc(Nc2ncc3nnn(-c4cccc(F)c4)c3n2)cc1` [Compound 321], the IC50 at GSK3β and at GSK3alpha was 1e-08 to 1e-07 M in each case.
In the case of `CNC(=O)c1ccc(Nc2ncc3nnn(-c4cccc(OCCOC)c4)c3n2)cc1` [Compound 325], the values for the IC50 on GSK3β and at GSK3alpha were 1e-08 to 1e-07 M and under 1e-08 M, respectively.
Turning to `COCCOc1cccc(-n2nnc3cnc(Nc4ccc(C(=O)N(C)C)cc4)nc32)c1` [Compound 326], the IC50 on GSK3β and on GSK3alpha was 1e-08 to 1e-07 M throughout.
As to `CNC(=O)c1ccc(Nc2ncc3nnn(-c4cccc(COCCOC)c4)c3n2)cc1` [Compound 327], the IC50 on GSK3β and on GSK3alpha was under 1e-08 M in each case.
Turning to `COCCOCc1cccc(-n2nnc3cnc(Nc4ccc(C(=O)N(C)C)cc4)nc32)c1` [Compound 328], the IC50 at GSK3β and on GSK3alpha was under 1e-08 M in each case.
With `CNC(=O)c1ccc(Nc2ncc3nnn(-c4cccc(CCO)c4)c3n2)cc1` [Compound 329], the IC50 at GSK3β and on GSK3alpha was under 1e-08 M each time.
In the case of `CN(C)C(=O)c1ccc(Nc2ncc3nnn(-c4cccc(CCO)c4)c3n2)cc1` [Compound 330], the IC50 on GSK3β and on GSK3alpha was under 1e-08 M each time.
For the compound `CNC(=O)c1ccc(Nc2ncc3nnn(-c4cccc(CC#N)c4)c3n2)cc1` [Compound 331], the IC50 at GSK3β and on GSK3alpha was 1e-08 to 1e-07 M each time.
For the compound `CN(C)C(=O)c1ccc(Nc2ncc3nnn(-c4cccc(CC#N)c4)c3n2)cc1` [Compound 332], the IC50 on GSK3β and at GSK3alpha was under 1e-08 M in each case.
For `CNC(=O)c1ccc(Nc2ncc3nnn(-c4cccc(COC)c4)c3n2)cc1` [Compound 333], the IC50 at GSK3β and at GSK3alpha was under 1e-08 M in each case.
As to `COCc1cccc(-n2nnc3cnc(Nc4ccc(C(=O)N(C)C)cc4)nc32)c1` [Compound 334], the IC50 on GSK3β and on GSK3alpha was under 1e-08 M in each case.
In the case of `COCCOc1cccc(-n2nnc3cnc(Nc4ccc(Cl)cc4)nc32)c1` [Compound 335], the IC50 on GSK3β and at GSK3alpha was 1e-08 to 1e-07 M each time.
Turning to `COCCOCc1cccc(-n2nnc3cnc(Nc4ccc(Cl)cc4)nc32)c1` [Compound 336], the IC50 at GSK3β and at GSK3alpha was under 1e-08 M each time.
For the compound `N#CCc1cccc(-n2nnc3cnc(Nc4ccc(Cl)cc4)nc32)c1` [Compound 337], the IC50 at GSK3β and at GSK3alpha was under 1e-08 M throughout.
Take `COCc1cccc(-n2nnc3cnc(Nc4ccc(Cl)cc4)nc32)c1` [Compound 338]: the IC50 at GSK3β and on GSK3alpha was under 1e-08 M throughout.
